Data: patent EP0777471B1, “INHIBITION OF LEUKOTRIENE BIOSYNTHESIS WITH UREA DERIVATIVES” (MINNESOTA MINING AND MANUFACTURING COMPANY, priority 1994, dated 1996)
“And” between values parts separate entries of the source, which are not always exact repeats. Identical values can stand only once. Like-named read-outs stand apart in the source and are kept apart here.

Columns and labels:
[1] = system: production of Leukotriene B4; experiment: Rat ex vivo Leukotriene B4 inhibition (oral dosing, blood challenged with A23187); assay type: in vivo, Rats; conditions: 50 mg/Kg, two hours post dose
Procedure: The test method described below measures the ability of a compound when administered orally to rats to inhibit the production of Leukotriene B4 in their blood which is drawn and challenged.
Rats (CD, male, non-fasted, 250 g) are lightly anesthetized with carbon dioxide and an approximately 0.75 mL sample of whole blood is obtained via cardiac puncture. The sample is dispensed into 12 X 75 mm polypropylene tubes containing 8-10 µL of 10,000 units/mL heparin, mixed and then maintained on ice. The rats are allowed to recover approximately one hour then dosed orally with compound dissolved in PEG 400 at a 5 mL/Kg volume. Five (5) rats are utilized per group. Two (2) hours post dose the rats are again anesthetized with carbon dioxide and the blood sampled again via cardiac puncture.
Duplicate 200 µL portions of blood are added to 1.0 mL polypropylene tubes. A 10 µL portion of 1mM A23187 Calcium Ionophore in dimethyl sulfoxide/Tris buffer is added to each tube. The tubes are gently vortexed then incubated in a 37°C water bath for 30 minutes. The tubes are then centrifuged at 4000 rpm for 10 minutes. 50 µL portions of plasma are transferred to 1.0 mL tubes containing 200 µL of methanol. The tubes are vortexed then placed in the freezer overnight.
The tubes are removed from the freezer then centrifuged at 4000 rpm for 10 minutes. […] portions of the methanol/plasma supernatant and 10 µL methanol dilutions of LTB4 standard curve are transferred to 96 well v-bottom microtiter plates. The plates are vacuum dried at 40°C. A 40 µL portion of LTB4 radioimmunoassay buffer is added to each well. The plate is bath sonicated for 5 minutes then assayed according to the manufacturer's (Advanced Magnetics; Cambridge, MA) instructions. Percent inhibition values are obtained by comparing the level of LTB4 in the post-dose samples to the level in the pre-dose samples according to the equation below. % Inhibition =((LTB4 pre-dose) - (LTB4 post-dose))/((LTB4 pre-dose))X 100 [formula]

[2] = system: production of Leukotriene C4 in mouse peritoneal macrophages; experiment: In vitro mouse peritoneal macrophage Leukotriene C4 inhibition (zymosan-stimulated, LTC4 radioimmunoassay); assay type: cell-based; conditions: Zymosan 50 µg/mL
Procedure: The test method described below measures the ability of compounds to inhibit the production of Leukotriene C4 in mouse peritoneal macrophages.
Mice (female, CD-1, weighing 25 g) are euthanized by exposure to carbon dioxide. The peritoneal cavity is exposed by peeling back the abdominal skin. A 5 mL portion of media (M199 containing 1% fetal bovine serum, 100 units/mL of penicillin, 100 µg/mL of streptomycin, 20 units/mL of heparin and no glutamine) is injected into the exposed peritoneal cavity of each mouse. The lavage fluid is removed and pooled to yield approximately1 X 10^6 macrophages/mL. A 2 mL portion of lavage fluid is added to each well of a 24 well sterile multidish and the macrophages are allowed to adhere to the plate for 2 hours at 37°C in a 5% carbon dioxide atmosphere. The media is removed and each well is washed with 2 mL of phosphate buffered saline (PBS). A 1 mL portion of media, without heparin, but containing 5 µCi/mL of 3H-myoinositol is added to each well and the plates are incubated overnight at 37°C in a 5% carbon dioxide atmosphere. The media is removed and the cells are washed twice with 2 mL portions of PBS. A 1 mL portion of Puck's saline formulation A containing 1 mM calcium chloride, 1 mM magnesium chloride and 10 mM lithium chloride is added to each well. (The Puck's formulation is made first as a 10X solution which contains 4 g of potassium chloride, 80 g of sodium chloride and 10 g of glucose per liter. The Puck's saline formulation A is made using 10 mL of the 10X Puck's formulation, 0.47 mL of 7.5% sodium bicarbonate and 2 mL of 1M N-2-hydroxyethylpiperazine-N'-2-ethanesulfonic acid per 100 mL.)
Compounds are dissolved in dimethyl sulfoxide. Compounds are tested at concentrations of 10, 1 and 0.1 µM. Each concentration is tested in duplicate.
A 1 µL portion of compound solution or vehicle (DMSO) is added to each well and the plates are incubated for 15 minutes at 37°C in a 5% carbon dioxide atmosphere. Zymosan is then added to provide a final concentration of 50 µg/mL in each well and the plate is incubated for 1 to 2 hours at 37°C in a 5% carbon dioxide atmosphere.
Following incubation 200 µL portions of media are transferred to 12 X 75 mm tubes. The tubes are either assayed immediately or stored at -20°C until they can be assayed.
The media is assayed for the presence of Leukotriene C4 by radioimmunoassay which is performed according to the manufacturer's (Advanced Magnetics; Cambridge, MA) instructions.

[3] = system: production of Leukotriene B4 (LTB4); experiment: Dog ex vivo Leukotriene B4 inhibition (oral dosing, blood challenged with calcium ionophore); assay type: in vivo, beagle dogs; conditions: each entry one dog, negative = stimulation of LTB4 production; for inhibition at 5 mg/kg: Canis lupus familiaris, po
Procedure: The test method described below measures the ability of a compound when administered orally to dogs to inhibit the production of Leukotriene B4 (LTB4) in their blood which is drawn and challenged at selected time points.
The test is conducted in beagle dogs (male and female; about 10 Kg). Prior to starting, the neck area of the beagle is shaved to allow easy access to the jugular vein. A 3-4 mL sample of blood is drawn from the jugular vein into a heparinized vacutainer. The dog is then dosed using a tube long enough to reach its stomach. The compound is dissolved in PEG 400 at a concentration such that the appropriate dose can be administered in approximately 5 mL. Immediately after the compound is given, a flush using 5 mL of vehicle is given to rinse the dosing tube. At selected time points following the dose, a 3-4 mL sample of blood is drawn.
The blood samples that have been drawn are challenged as soon as possible. A 0.5 mL portion of blood is aliquoted into 3 tubes (1 mL microtiter tubes). A 1 µL portion of 25 mM calcium ionophore in dimethyl sulfoxide is added to 2 of the tubes. A 1 µL portion of dimethyl sulfoxide is added to the third tube. The tubes are lightly mixed then placed in a 37°C water bath for 30 minutes. The tubes are centrifuged at 11,000 rpm for 3 minutes and the plasma supernatant is transferred to clean tubes. A 50 µL portion of this plasma is added to a I mL microtiter tube containing 200 µL of methanol. The tubes are placed in the freezer at -20°C for at least 1 hour then centrifuged at 2000 rpm for 10 minutes. A 10 µL portion of the methanol supematant is dried under vacuum at ambient temperature and then reconstituted in LTB4 buffer. The amount of LTB4 in the sample is determined by radioimmunoassay performed according to the manufacturer's (Advanced Magnetics; Cambridge, MA) instructions. Percent inhibition values are obtained by comparing the level of LTB4 in the post-dose sample to the level in the pre-dose sample according to the equation below. % Inhibition =((LTB4 predose) - (LTB4 postdose))/((LTB4 predose))X 100 [formula]
A number of the compounds that are useful in the practice of the method of the invention were tested. The results are shown in Table 15 below where each entry represents the results from one dog. A negative number indicates stimulation of LTB4 production. All compounds were tested at a dose of 5 mg/Kg.

SMILES | %I [1] | IC50 [2] [nM] | also measured
CC(C)N(O)C(=O)Nc1ccc(S(C)(=O)=O)cc1 [Compound 62, 1-Hydroxy-1-(1-methylethyl)-3-[4-(methylsulfonyl)phenyl]urea] | 18% | 6400 | 
CCCC(CCC)N(O)C(=O)Nc1ccccc1 [Compound 70, 1-Hydroxy-1-(1-propylbutyl)-3-phenylurea] | 0% | < 1000 | 
CSc1ccc(NC(=O)N(O)C(C)C)cc1 [Compound 15, 1-Hydroxy-1-(1-methylethyl)-3-[4-(methylthio)phenyl]urea] |  | < 100 | % Inhibition 1 hour ([3]; 5 mg/Kg, 1 hour post dose): 95%; % Inhibition 2 hour ([3]; 5 mg/Kg, 2 hour post dose): 98%; % Inhibition 4 hour ([3]; 5 mg/Kg, 4 hour post dose): 98% and 96% and 31%; % Inhibition 6 hour ([3]; 5 mg/Kg, 6 hour post dose): 84% and 14%; inhibition at 5 mg/kg ([3]; 1 h, 1 hour post dose, read-out: % Inhibition 1 hour): 100%; inhibition at 5 mg/kg ([3]; 2 h, 2 hour post dose, read-out: % Inhibition 2 hour): 99%
CC(C)N(O)C(=O)Nc1ccc([N+](=O)[O-])cc1 [Compound 30, 1-hydroxy-1-(1-methylethyl)-3-(4-nitrophenyl)urea] | 13% | 300 | 
O=C(Nc1ccccc1)N(O)C1CCCCCC1 [Compound 51, 1-cycloheptyl-1-hydroxy-3-phenylurea] | 22% | 600 | 
COc1ccc(NC(=O)N(O)C2CCCCCCC2)cc1 [Compound 37, 1-Cyclooctyl-1-hydroxy-3-(4-methoxyphenyl)urea] | 7% | < 1000 | 
CN(O)C(=O)N(C)c1ccccc1 [Compound 75, 1-Hydroxy-1,3-dimethyl-3-phenylurea] | 0% | < 10000 | 
CSc1cccc(NC(=O)N(O)C2CCCCC2)c1 [Compound 32, 1-Cyclohexyl-1-hydroxy-3-[3-(methylthio)phenyl]urea] | 28% | 400 | 
CC(C)N(O)C(=O)Nc1ccc([S+](C)[O-])cc1 (stereo not drawn) [Compound 63, 1-Hydroxy-1-(1-methylethyl)-3-[4-(methylsulfinyl)phenyl]urea] | 92% | 4000 | 
Cc1cc(C)c(NC(=O)N(O)C(C)C)cc1C [Compound 67, 1-Hydroxy-1-(1-methylethyl)-3-(2,4,5-trimethylphenyl)urea] | 23% | < 1000 | 
CCCCCN(O)C(=O)Nc1ccccc1 [Compound 56, 1-hydroxy-1-pentyl-3-phenylurea] | 6% and 13% | < 100 | 
CCC(CC)N(O)C(=O)Nc1cccc(Oc2ccccc2)c1 [Compound 77, 1-Hydroxy-1-(1-ethylpropyl)-3-(3-phenoxyphenyl)urea] | 7% | < 100 | 
CN(O)C(=O)Nc1ccc([N+](=O)[O-])cc1 [Compound 13, 1-hydroxy-1-methyl-3-(4-nitrophenyl)urea] | 23% | 1000 | 
CC(CCN(O)C(=O)Nc1ccccc1)CC(C)(C)C (stereo not drawn) [Compound 49, 1-hydroxy-3-phenyl-1-(3,5,5-trimethylhexyl)urea] | 13% | < 1000 | 
CCC(C)N(O)C(=O)Nc1ccccc1 (stereo not drawn) [Compound 69, 1-Hydroxy-1-(1-methylpropyl)-3-phenylurea] | 71% | < 1000 | 
CCC(CC)N(O)C(=O)Nc1ccc([N+](=O)[O-])cc1 [Compound 40, 1-(1-Ethylpropyl)-1-hydroxy-3-(4-nitrophenyl)urea] | 0% | 1000 | 
CCCCCCCCN(O)C(=O)Nc1ccccc1 [Compound 52, 1-hydroxy-1-octyl-3-phenylurea] | 9% | < 100 | 
O=C(Nc1ccccc1)N(O)C1CCCCCCC1 [Compound 36, 1-Cyclooctyl-1-hydroxy-3-phenylurea] | 7% | 200 | 
CCC(CC)N(O)C(=O)Nc1ccc(SC)cc1 [Compound 39, 1-(1-Ethylpropyl)-1-hydroxy-3-[4-(methylthio)phenyl]urea] | 59% | < 1000 | 
CCC(CC)N(O)C(=O)Nc1ccc(Cc2ccccc2)cc1 [Compound 78, 1-Hydroxy-1-(1-ethylpropyl)-3-(4-benzylphenyl)urea] | 0% | < 1000 | 
CCC(CC)N(O)C(=O)Nc1ccccc1Oc1ccccc1 [Compound 76, 1-Hydroxy-1-(1-ethylpropyl)-3-(2-phenoxyphenyl)urea] | 13% | < 100 | 
CCCCCCCCCCCCN(O)C(=O)Nc1ccccc1 [Compound 53, 1-dodecyl-1-hydroxy-3-phenylurea] | 1% | < 1000 | 
CCCC(CC)N(O)C(=O)Nc1ccccc1 (stereo not drawn) [Compound 71, 1-Hydroxy-1-(1-ethylbutyl)-3-phenylurea] | 5% | < 1000 | 
O=C(Nc1ccc([N+](=O)[O-])cc1)N(O)C1CCCCCCC1 [Compound 38, 1-Cyclooctyl-1-hydroxy-3-(4-nitrophenyl)urea] | 2% | < 1000 | 
CCC(CC)N(O)C(=O)N(C)c1ccccc1 [Compound 74, 1-Hydroxy-1-(1-ethylpropyl)-3-methyl-3-phenylurea] | 7% | < 10000 | 
CCOC(=O)CCCCCN(O)C(=O)Nc1ccccc1 [Compound 50, 6-(1-hydroxy-3-phenylureido)-1-hexanoic acid ethyl ester] | 6% | < 1000 | 
